Where “and” joins values, the source holds several entries; their conditions need not be identical. Identical values can stand only once. Entries after “also recorded” stand apart in the source; their conditions may differ. Like-named read-outs stand apart in the source and are kept apart here.

Data set [1] is described as follows: Effect of pH on drug penetration through normal untreated hairless mouse skin (Example V A). Type of data set: in vitro ADME. To be noted: for P (permeability): mouse.
Data set [2] can be described thus: Effect of pH on drug penetration through hairless mouse skin pretreated with papain (Example V B). It is filed as in vitro ADME. The text has this: B. Effect of pH on drug penetration through hairless mouse
skin Pretreated with sigma papain of concentration 0.093

Another data set can be described thus: in vitro. The conditions noted are these: mouse.
Data set [3] in a line: Penetration of polypeptides through papain-pretreated mouse skin, SDS-PAGE. The conditions noted are these: for fragmentation of diffused polypeptide: diffused through papain treated skin, SDS-PAGE. Type of data set: in vitro ADME. The text has this: After papain skin treatment pursuant to Example III.1 above, polypeptides were diffused through the pretreated mouse skin using the same concentration and pH values for each test. Pure buffer solution was also diffused through the pretreated skin of the mouse to determine if any endogenous proteins diffused into the diffusate.
Comparisons of solutions of non-diffused polypeptides, diffused polypeptides and diffused buffer solutions were made using gel electrophoresis. The system used for these determinations was sodium dodecyl sulfate polyacrylamide gel electrophoresis (SDS-PAGE), a procedure well-known in the art. These comparisons determined if fragmentation of the diffused polypeptide molecules occurred.
A series of polypeptides of various molecular weights were studied.

The nature of data set [4]: Fourier Transform Infrared spectroscopy of stratum corneum. Set-up: species or system mouse. The conditions noted are these: for Absorbance in protein areas, peak position: Table I. The method, then: A. Comparisons of normal stratum corneum (from mouse skin) to stratum corneum treated with a 0.09% concentration of papain for 24 hours was performed using Fourier Transform Infrared spectroscopy (FTIR). […] It is postulated that a shift from a random form of protein to the more organized beta sheet structure occurs. The alpha-helix structures of skin protein could be fractionated, uncoiled, or both.
A comparison of symmetric and asymmetric CH stretch bands was then made. These two bands represent lipid structure and would show any changes in the stratum corneum lipids caused by the papain.
B. Azone™ was tested as a permeation enhancer with and without the presence of papain.

Data set [5] is described as follows: Effect of non-enzyme components in admixture with papain on penetration of 14C-TEAB (Example IV). To be noted: 14C-TEAB through pretreated skin (n = 1 for components alone, n = 2 combinations, n = 3 papain 0.0465 mg/ml 24 hours).
The conditions of data set [6]: mouse.
Setting [7] is: pH 5.9, sigma papain 0.093 mg/ml for 24 hours.
[8] abbreviates: pH 6.6, sigma papain 0.093 mg/ml for 24 hours.
Where [9] appears, read: pH 7.4, sigma papain 0.093 mg/ml for 24 hours.
Where [10] appears, read: pH 8.0, sigma papain 0.093 mg/ml for 24 hours.
Setting [11] is: TEAB, pretreated with papain 0.010 mg/0.108 ml (0.093 mg/ml).
[12] abbreviates: TEAB, pretreated with papain 0.170 mg/0.602 ml (0.278 mg/ml).
Where [13] appears, read: TEAB, pretreated with papain 0.170 mg/0.200 ml ([…]).

For `CC(=O)OCC[N+](C)(C)C.[Cl-]` [Acetylcholine Chloride, acetylcholine chloride], the “J (flux)” value in data set [1] (pH 5.9) is given as 5.83 × 10^-6 mg/cm^2 /sec; in data set [1] (pH 6.6) it was 5.21 × 10^-6 mg/cm^2 /sec; in data set [1] (pH 7.4), 6.41 × 10^-6 mg/cm^2 /sec; in data set [1] (pH 8.0), 9.32 × 10^-6 mg/cm^2 /sec; in data set [2] (setting [7]), 6.00 × 10^-4 mg/cm^2 /sec; in data set [2] (setting [8]), 7.77 × 10^-4 mg/cm^2 /sec. Besides, the “J (flux)” value in data set [2] (setting [9]) is 6.46 × 10^-4 mg/cm^2 /sec; in data set [2] (setting [10]) it was 6.28 × 10^-4 mg/cm^2 /sec. For the same molecule, the “E (enhancement)” value in data set [2] (setting [7]) worked out at 103.09; in data set [2] (setting [8]) it was 149.23; in data set [2] (setting [9]) it was 100.94; in data set [2] (setting [10]), 67.38. Moreover, the “P (permeability)” value in data set [2] (setting [7]) stood at 3 ×10⁻⁶ cm/s; in data set [2] (setting [8]) it was 3.88 ×10⁻⁶ cm/s; in data set [2] (setting [9]), 3.23 ×10⁻⁶ cm/s; in data set [2] (setting [10]), 3.14 ×10⁻⁶ cm/s.

Regarding `CC[N+](CC)(CC)CC.[Br-]` [TEAB, tetraethylammonium bromide], under “mouse”, the “P (permeability)” value came out at 0.0254 ×10⁻⁶ cm/s. The Papp (in general, a coefficient for how fast a substance crosses the barrier) in the data set “in vitro” came out at 0.00495 ×10⁻⁶ cm/s.

For “insulin: Insulin (Regular, Bovine), MW 6,000”, the “fragmentation of diffused polypeptide” value in data set [3] was “determination of molecular fragmentation due to the permeation would be very difficult if not impossible”.

On to “carbonic anhydrase: Carbonic anhydrase, MW 29,000”, for which the “fragmentation of diffused polypeptide” value in data set [3] is given as “fractionated during the permeation process”. In addition, the “breakdown of molecule on exposure to papain treated skin without diffusion” value in data set [3] (donor solution of the diffusion cell) is “no change or breakdown of the molecule”.

On to `CCCCCCCCCCCCN1CCCCCC1=O` [Azone, 1-n-dodecylazacycloheptan-2-one], for which the “Absorbance in protein areas, peak position” value was 1244.5 cm⁻¹ in data set [4] (untreated SC 1244); 1267.4 cm⁻¹ in data set [4] (untreated SC 1267); 1296.6 cm⁻¹ in data set [4] (untreated SC 1295); 1402 cm⁻¹ in data set [4] (untreated SC 1400.5); 1461.8 cm⁻¹ in data set [4] (untreated SC 1456). Moreover, the Absorbance in lipid areas, symmetric CH peak position in data set [4] (Table II, untreated 2848.3) was found to be 2850 cm⁻¹. The molecule also returned an Absorbance in lipid areas, asymmetric CH peak position in data set [4] (Table II, untreated 2916.5) of 2920 cm⁻¹. Also, the “Length of the 70% line, symmetric CH” value in data set [4] (Table III, untreated 8.6) came to 11.4 cm⁻¹. The “Length of the 70% line, asymmetric CH” value in data set [4] (Table III, untreated 17.5) amounted to 27.2 cm⁻¹. For the same molecule, the “Asymm CH” value in data set [4] (Table VII, exposed SC) turned out to be 2916.5 cm⁻¹. For the same molecule, in data set [4] (Table VII, exposed SC), the “Symm CH” value amounted to 2848.3 cm⁻¹. For the same molecule, in data set [4] (Table VII, normal SC 8.6), the “Symm 70% line” value is 11.4 cm⁻¹. Moreover, the “Asymm 70% line” value in data set [4] (Table VII, normal SC 17.5) stood at 27.2 cm⁻¹. Moreover, in data set [4] (in words, listed as Azone™), the “change in lipid structure / CH stretch bands of stratum corneum” value was “lengthening of both symmetric and asymmetric CH stretch lines but did not change their peak positions and 70% line lengthened”. Also, the “change in protein FTIR areas of stratum corneum” value in data set [4] (in words, listed as Azone™) is recorded as “did not change protein FTIR areas; also recorded: did not significantly effect the protein”; in data set [4] (in words, listed as azone), “No significant changes occurred in the protein areas”.

On to `CC(=O)[C@H]1CC[C@H]2[C@@H]3CCC4=CC(=O)CC[C@]4(C)[C@H]3CC[C@]12C` [Progesterone], for which the “J (flux)” value in data set [1] (pH 5.9) was 2.30 × 10^-7 mg/cm^2 /sec; in data set [1] (pH 6.6) it was 2.34 × 10^-7 mg/cm^2 /sec; in data set [1] (pH 7.4), 2.34 × 10^-7 mg/cm^2 /sec and 2.92 × 10^-6 mg/cm^2 /sec; in data set [1] (pH 8.0) it was 3.09 × 10^-6 mg/cm^2 /sec; in data set [2] (setting [7]), 2.88 × 10^-7 mg/cm^2 /sec; in data set [2] (setting [8]), 3.51 × 10^-7 mg/cm^2 /sec. Besides, the “J (flux)” value in data set [2] (setting [9]) is given as 2.73 × 10^-7 mg/cm^2 /sec. In addition, the “E (enhancement)” value was 1.25 in data set [2] (setting [7]), 1.50 in data set [2] (setting [8]), 1.17 in data set [2] (setting [9]) and 1.17 in data set [2] (setting [10]). Besides, the “P (permeability)” value in data set [2] (setting [10]) is 0.289 ×10⁻⁶ cm/s and 3.61 ×10⁻⁶ cm/s.

For `C=CCc1ccccc1OCC(O)CNC(C)C` (stereo not shown) [Alprenolol], the “P (permeability)” value was found to be 0.0536 ×10⁻⁶ cm/s in data set [1] (pH 5.9); 0.184 ×10⁻⁶ cm/s in data set [1] (pH 7.4); 0.21 ×10⁻⁶ cm/s in data set [1] (pH 8); 1.2 ×10⁻⁶ cm/s in data set [2] (mouse, pH 5.9); 1.33 ×10⁻⁶ cm/s in data set [2] (mouse, pH 6.6); 1.32 ×10⁻⁶ cm/s in data set [2] (mouse, pH 7.4). The “P (permeability)” value in data set [2] (mouse, pH 8) was found to be 1.65 ×10⁻⁶ cm/s. Also, the “J (flux)” value is on record as 5.36 × 10^-7 mg/cm^2 /sec in data set [1] (pH 5.9), 7.74 × 10^-7 mg/cm^2 /sec in data set [1] (pH 6.6), 1.84 × 10^-6 mg/cm^2 /sec in data set [1] (pH 7.4) and 2.10 × 10^-6 mg/cm^2 /sec in data set [1] (pH 8). The “E (enhancement)” value in data set [2] (setting [7]) turned out to be 22.39; in data set [2] (setting [8]), 17.18; in data set [2] (setting [9]), 7.17; in data set [2] (setting [10]), 7.86.

With `CCCCCCCC/C=C\CCCCCCCCO` [10% oleyl alcohol, oleyl alcohol], the “J (flux)” value in data set [5] is on record as 1.49 × 10^-4 mg cm^-2 s^-1.

As to dioxolane [2% dioxolane], in data set [6], the “P (permeability)” value came out at 0.00521 ×10⁻⁶ cm/s.

With lysozyme: Lysozyme, MW 14,400, the “fragmentation of diffused polypeptide” value in data set [3] is “no significant difference in molecular size. The molecule remained intact and did not break apart”.

B1: Sigma papain: papain from Sigma Chemical (protein, UniProt P00784 134-345, looked up)
Papain: IPEYVDWRQKGAVTPVKNQGSCGSCWAFSAVVTIEGIIKIRTGNLNEYSEQELLDCDRRSYGCNGGYPWSALQLVAQYGIHYRNTYPYEGVQRYCRSREKGPYAAKTDGVRQVQPYNEGALLYSIANQPVSVVLEAAGKDFQLYRGGIFVGPCGNKVDHAVAAVGYGPNYILIKNSWGTGWGENGYIRIKRGTGNSYGVCGLYTSSFYPVKN
Take B1: under setting [11], the “J (flux)” value is listed as 6.87 × 10^-4 mg/cm^2 /sec and the “P (permeability)” value came to 0.85 ×10⁻⁶ cm/s. Further, under setting [12], the “J (flux)” value was 1.46 × 10^-3 mg/cm^2 /sec and the “P (permeability)” value was determined as 1.81 ×10⁻⁶ cm/s.

B2: Allergan papain: papain contained in a contact lens cleaning product (tablets for dissolution in water) wherein activators are included (protein, UniProt P00784 134-345, looked up)
Papain: B1 Papain
modifications: contact lens cleaning tablet with activators
For B2, under setting [13], the “J (flux)” value is 1.04 × 10^-3 mg/cm^2 /sec and the “P (permeability)” value was 1.29 ×10⁻⁶ cm/s.

(Values after US5534260A, “Percutaneous drug delivery system” (priority 1994, dated 1996).)
